Read-outs that look alike come from different tables or passages of the source.
Experiments:
[1] = system: HT29 (Human colon, B-Raf V599E); assay: Cell proliferation assay (Cell Titer Glo); assay type: cell-based
Description: (§1) In one illustrative method, cells are treated with various concentrations of the inhibitor in 96 well plates, incubated at 37° C./5% CO2 for three days, and analyzed using the Cell Titer Glo kit (Promega).
(§2) COLO829 is a human melanoma cell line. HT29 is a human colon cancer cell line. Both cell lines have a V600E B-Raf mutation. SKOV3 is an ovarian cancer cell line having wild-type B-Raf. EKR2 (extra-cellular signal regulated kinase 2) is a kinase in the Ras/B-Raf MAP kinase cascade pathway.

[2] = system: COLO829 (Human melanoma, B-Raf V599E); assay: Cell proliferation assay (Cell Titer Glo); assay type: cell-based
Description: as §1, §2

MEK1 [3] = target: T1, MEK1 (Homo sapiens, UniProt Q02750); conditions: cited from earlier work
[4] = system: phosphorylated ERK in COLO829 cells (B-Raf V599E); assay: Phospho-ERK Western blot in COLO829 cells; assay type: cell-based, human
Description: (§3) The downstream effects of inhibition of a particular kinase (e.g. MEK) can be established by measuring the phosphorylation state of several proteins that require that kinase for phosphorylation (e.g. ERK1). Cultured cells are treated with hypothemycin or other lactone analogs described herein, and Western blots of cell extracts are probed with antibodies specific for the unmodified and phosphorylated forms of the downstream targets. As an example, the effects of hypothemycin on MEK1/2 can be determined by measuring the level of ERK1/2 phosphorylation.
Referring to FIG. 8, B-Raf V599E mutant melanoma cell line COLO829 was incubated with 1 microM hypothemycin for 2, 5, 10, 15, 30, and 60 minutes. The cells were then lysed and the proteins extracted. Equal amounts of total protein from each sample were separated by SDS-PAGE followed by electroblotting to a PVDF membrane. The levels of phospho-ERK present in each extract were visualized by incubation of the membrane with anti-phosphoERK antibody (Cell Signaling Technologies) followed by incubation with an HRP linked secondary antibody. Phospho-ERK containing bands were detected by autoradiography using the ECL Western detection kit (Amersham).

p70S6K(h) = assay: Kinase panel, residual activity; assay type: biochemical, human; conditions: 0.2 μM
Description: In this panel of 124 kinases, 18 of the 19 kinases identified as having an active site cysteine were inhibited to some extent by hypothemycin at a concentration of 0.2 μM and/or 2 μM.

[5] = system: phosphorylated FLT3, MEK and ERK in MV-4-11 (FLT3(ITD)); assay: Phosphorylation state of kinases in MV-4-11 cells; assay type: cell-based; conditions: MV-4-11, FLT3(ITD) mutation
Description: as §3

MEK1 [6] = target: T1, MEK1; assay: Time-dependent kinase inhibition kinetics (pre-incubation, [32P]ATP filter binding); assay type: biochemical
Description: Typically, one measures the increase in inhibition of protein kinase activity in the presence of inhibitor over time. In one method, aliquots of a “pre-incubation” reaction mixture containing enzyme and inhibitor are assayed for activity (initial velocities) over time; increased inhibition or decreased initial velocities will be observed over time as the Michael adduct forms (Walsh, C, Enzyme Reaction Mechanisms, W.H. Freeman & Co., 1979, pp 86-94). In a second method, the time dependent loss of activity is measured as “progress curves” that measure and analyze product formed (e.g. ADP) versus time (Morrison & Walsh, Adv. Enzymol Relat Areas Mol. Biol. 1988, 61, 201-301). In either case, the time dependent inactivation can be dampened by the presence of a competing substrate, in this case ATP.
MEK1 and many other protein kinases that can be targets of the compounds useful in the methods of the invention can be obtained commercially (Invitrogen; Carlsbad, Calif.) or prepared using standard molecular biology techniques. After activation by phosphorylation, they are assayed for their ability to phosphorylate a target kinase or surrogate substrate. For example, MEK1 can be assayed in a mixture containing MEK1 (30 nM) and ERK1 (2 μM), [γ-^32P]ATP (10 uM) and MgCl2 in Mops buffer pH 7.6. Phosphorylation can be measured by isolating [γ-^32P]-phosphorylated ERK1 on phosphocellulose paper, and counting radioactive product. Alternatively, a coupled enzyme system may be used in which a product of the kinase reaction, such as ADP, is measured by analysis with a secondary system that converts that product (e.g. ADP) to an easily measurable entity (e.g. NADH); often, such coupled systems can be measured by convenient spectrophotometry assays.
To measure time-dependent inhibition using the “pre-incubation method”, MEK1 (or other kinase) is incubated with varying amounts of the lactone inhibitor; […]. Aliquots are removed at various times, added to a solution containing substrates [γ-^32P]ATP, ERK1 (or other substrate), and the other components of the reaction, and initial rates are determined as a measure of remaining enzyme activity.
For covalent inhibitors, plots of log (activity) versus time provide apparent first-order rate constants (kobsd) of enzyme activity loss. If these assays are performed at varying concentrations of inhibitor, a series of first-order plots is obtained and kobsd obtained at each inhibitor concentration. To measure time-dependent inhibition using the “progress-curve method” (see references cited above and Kuzmic et al., Methods Enzymol 2004; 383: 366-81), ERK (or other kinase) is treated with varying amounts of the lactone inhibitor, and the formation of ADP is measured continuously by a coupled assay. […] Such molecules may be competitive inhibitors but should not show time-dependent inactivation.
Those of skill in the art will recognize that within the set of compounds useful in the methods of the invention, significant variability in specificity can be achieved, allowing one to identify optimal compounds for different applications. Inhibition progress curve analysis was performed using continuous, colorimetric, or fluorimetric assays. All experiments were done at 1 mM ATP, with the exception of KDR (at 5 mM ATP).
MEK1 assays were performed using pre-incubation experiments with radioactive [^32P]ATP and filter binding of product. All other kinases were analyzed using progress curve analysis from a continuous spectrophotometric assay.

T1 sequence (Q02750 whole entry): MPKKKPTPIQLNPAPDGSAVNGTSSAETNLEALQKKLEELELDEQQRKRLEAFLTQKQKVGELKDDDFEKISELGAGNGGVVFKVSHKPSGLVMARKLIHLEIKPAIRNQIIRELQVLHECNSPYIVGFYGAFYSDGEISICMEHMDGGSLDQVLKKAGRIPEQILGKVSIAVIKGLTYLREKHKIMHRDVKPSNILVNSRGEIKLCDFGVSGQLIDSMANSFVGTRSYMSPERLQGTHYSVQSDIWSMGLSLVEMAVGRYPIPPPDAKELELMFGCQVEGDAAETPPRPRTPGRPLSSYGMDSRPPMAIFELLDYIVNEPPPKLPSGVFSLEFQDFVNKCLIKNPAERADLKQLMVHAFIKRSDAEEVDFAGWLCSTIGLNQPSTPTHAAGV

With `COc1cc(O)c2c(c1)[C@H]1O[C@@H]1C[C@H](O)[C@H](O)C(=O)/C=C\C[C@H](C)OC2=O` [Hypothemycin, hypothemycin] the IC50 ([1]; HT-29, Table 7, HT29 human colon cancer, V600E B-Raf, read-out: Cell Line IC50 HT29) was 240 ± 170 nM, the IC50 ([1]; Homo sapiens, HT-29, read-out: Kinase Inhibitor IC50) was 100 nM and the IC50 ([2]; COLO-829, Table 7, COLO829 human melanoma, V600E B-Raf, read-out: Cell Line IC50 COLO829) was 73 ± 17 nM. For the same molecule, the GI50 ([2]; Homo sapiens, COLO-829) was 50 nM, the IC50 ([2]; Homo sapiens, COLO-829, read-out: Kinase Inhibitor IC50) was 89 nM and the “potency as MEK1 inhibitor relative to L-783,277 (fold less potent)” value (MEK1 [3]) was 4 fold. The “time phosphorylated active ERK is absent after removal of the inhibitor” value ([4]; COLO829 (and other BRAF mutant cells)) was ~24 h, the “ERK pathway after a 10 min. exposure” value ([4]; COLO829, concentrations several-fold lower than Kd / sub-micromolar) was “completely shut down” and the “time to depletion of the phosphorylated form of ERK” value ([4]; COLO829 cells, 1 microM hypothemycin, FIG. 8) was ≤ 10 min. For the same molecule, the Percent residual activity (p70S6K(h)) was 94%, the “phosphorylated forms of FLT3, MEK and ERK” value [5] was “loss of phosphorylated forms” and the kinact/KI (MEK1 [6]) was 130000 M⁻¹ s⁻¹. The Ki (MEK1 [6]; 1 mM ATP) was 19 nM and the kinact (MEK1 [6]; 1 mM ATP, read-out: kinact) was 0.003 s⁻¹.

— patent US20100004234A1, “SPECIFIC KINASE INHIBITORS” (Kosan Biosciences Incorporated, priority 2004, published 2010)
